Test results as given in US20130259884A1, “PEPTIDES” ([…] SL, priority 2010, published 2013).
Where a SMILES comes first, the peptide text is derived from it.

Assay: Water solubility of peptides when preparing stock solutions
Assay type: physicochemical
Settings: stock solution in sterile distilled water or 100% DMSO; read-out: solubility of peptide (water soluble or water insoluble, dissolved in DMSO)
Method in brief: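 Water-soluble peptides from water stocks and insoluble ones from 100% DMSO stocks (50 mg/ml), each diluted to 2 mg/ml in water then into media. Added singly or as pools to 350,000 PBMC in anti-IL-4 ELISPOT wells at 10 μg/ml final per peptide. Identically diluted media-only controls.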

SMILES	solubility
CC[C@H](C)[C@H](NC(=O)[C@@H](NC(=O)[C@@H](NC(=O)[C@H](Cc1ccccc1)NC(=O)[C@H](CCC(N)=O)NC(=O)[C@@H](N)CC(C)C)[C@@H](C)O)[C@@H](C)O)C(=O)N[C@@H](C)C(=O)N[C@@H](CO)C(=O)N[C@@H](CC(C)C)C(=O)N[C@@H](Cc1ccccc1)C(=O)N[C@@H](C)C(=O)N[C@@H](C)C(=O)N[C@@H](C)C(=O)NCC(=O)N[C@@H](CC(C)C)C(=O)O [Peptide 32.2.1, LQFTTIASLFAAAGL] (H-LQFTTIASLFAAAGL-OH)	< 2500 µg/mL
CC[C@H](C)[C@H](NC(=O)[C@@H](N)CC(=O)O)C(=O)N[C@H](C(=O)N[C@@H](Cc1ccc(O)cc1)C(=O)N[C@H](C(=O)N[C@@H](C)C(=O)N[C@H](C(=O)N[C@@H](C)C(=O)N[C@H](C(=O)N[C@@H](CC(C)C)C(=O)N1CCC[C@H]1C(=O)N[C@@H](CC(N)=O)C(=O)N[C@@H](Cc1ccc(O)cc1)C(=O)N[C@H](C(=O)N[C@@H](CCCNC(=N)N)C(=O)O)C(C)C)[C@@H](C)O)[C@@H](C)O)C(C)C)[C@@H](C)O [Peptide 37.3.1, DITYVATATLPNYVR] (H-DITYVATATLPNYVR-OH)	> 2500 µg/mL
CC[C@H](C)[C@H](NC(=O)[C@H](CC(N)=O)NC(=O)[C@H](Cc1ccccc1)NC(=O)CNC(=O)[C@H](CC(C)C)NC(=O)[C@H](CO)NC(=O)[C@H](CC(N)=O)NC(=O)[C@H](Cc1ccc(O)cc1)NC(=O)[C@H](Cc1ccc(O)cc1)NC(=O)[C@@H](NC(=O)CNC(=O)[C@@H](N)CCC(=O)O)[C@@H](C)O)C(=O)N[C@@H](CCCCN)C(=O)N[C@@H](C)C(=O)N[C@H](C(=O)O)[C@@H](C)O [Peptide 35.2, EGTYYNSLGFNIKAT] (H-EGTYYNSLGFNIKAT-OH)	< 2500 µg/mL
CC(C)C[C@H](N)C(=O)N1CCC[C@H]1C(=O)N[C@@H](CC(N)=O)C(=O)N[C@@H](Cc1ccc(O)cc1)C(=O)N[C@H](C(=O)N[C@@H](CCCNC(=N)N)C(=O)N[C@@H](C)C(=O)NCC(=O)NCC(=O)N[C@@H](CC(N)=O)C(=O)NCC(=O)N1CCC[C@H]1C(=O)N[C@@H](CCCCN)C(=O)N[C@@H](CC(=O)O)C(=O)N[C@@H](Cc1ccccc1)C(=O)O)C(C)C [Peptide L6-5.01, LPNYVRAGGNGPKDF] (H-LPNYVRAGGNGPKDF-OH)	> 2500 µg/mL
CC(C)C[C@H](NC(=O)[C@H](CCC(N)=O)NC(=O)[C@H](Cc1c[nH]c2ccccc12)NC(=O)[C@H](Cc1c[nH]cn1)NC(=O)[C@H](CC(C)C)NC(=O)[C@@H](NC(=O)[C@H](CC(N)=O)NC(=O)[C@H](Cc1ccc(O)cc1)NC(=O)[C@H](CO)NC(=O)[C@H](CC(N)=O)NC(=O)[C@@H](NC(=O)[C@H](Cc1c[nH]c2ccccc12)NC(=O)[C@@H](NC(=O)[C@@H](NC(=O)CN)[C@@H](C)O)C(C)C)C(C)C)[C@@H](C)O)C(=O)O [Peptide 72.2, GTVWVNSYNTLHWQL] (H-GTVWVNSYNTLHWQL-OH)	< 2500 µg/mL
CC(C)C[C@H](NC(=O)[C@H](CCCCN)NC(=O)[C@H](CC(=O)O)NC(=O)[C@H](C)NC(=O)[C@H](CCC(N)=O)NC(=O)[C@H](C)NC(=O)[C@H](CO)NC(=O)[C@@H](NC(=O)[C@@H](NC(=O)[C@H](Cc1ccccc1)NC(=O)[C@H](CC(=O)O)NC(=O)[C@H](CC(C)C)NC(=O)[C@@H](NC(=O)CNC(=O)CN)[C@@H](C)O)[C@@H](C)O)C(C)C)C(=O)O [Peptide L10-1.01, GGTLDFTVSAQADKL] (H-GGTLDFTVSAQADKL-OH)	> 2500 µg/mL
CC[C@H](C)[C@H](NC(=O)[C@@H](NC(=O)[C@@H](NC(=O)[C@H](CC(C)C)NC(=O)[C@H](CCCCN)NC(=O)[C@H](CO)NC(=O)[C@@H](N)CC(C)C)C(C)C)[C@@H](C)O)C(=O)N[C@@H](C)C(=O)N[C@@H](CCCCN)C(=O)N[C@H](C(=O)N[C@@H](CC(=O)O)C(=O)N[C@@H](C)C(=O)N[C@H](C(=O)N[C@@H](CC(C)C)C(=O)N[C@@H](CC(N)=O)C(=O)O)[C@@H](C)O)C(C)C [Peptide 56.2, LSKLVTIAKVDATLN] (H-LSKLVTIAKVDATLN-OH)	> 2500 µg/mL
